As usually defined, the IC50 is the concentration that inhibits the measured activity by half. Usually inhibition stands for the percentage by which the read-out fell short of the control. By Ki is commonly meant a measure of affinity in units of concentration, obtained from inhibition or displacement.

The results in this text go back to ChEMBL document CHEMBL5252548, “A review on flavonoid-based scaffolds as multi-target-directed ligands (MTDLs) for Alzheimer's disease” (Eur J Med Chem, 2018).

Assay [1] deals with T1, Amyloid-beta precursor protein (Homo sapiens, UniProt P05067). The assay is described as follows: Inhibition of amyloid beta (1 to 42) (unknown origin) fibril formation incubated for 1 hr by thioflavin-T fluorescence assay.
T1 sequence (P05067 whole entry): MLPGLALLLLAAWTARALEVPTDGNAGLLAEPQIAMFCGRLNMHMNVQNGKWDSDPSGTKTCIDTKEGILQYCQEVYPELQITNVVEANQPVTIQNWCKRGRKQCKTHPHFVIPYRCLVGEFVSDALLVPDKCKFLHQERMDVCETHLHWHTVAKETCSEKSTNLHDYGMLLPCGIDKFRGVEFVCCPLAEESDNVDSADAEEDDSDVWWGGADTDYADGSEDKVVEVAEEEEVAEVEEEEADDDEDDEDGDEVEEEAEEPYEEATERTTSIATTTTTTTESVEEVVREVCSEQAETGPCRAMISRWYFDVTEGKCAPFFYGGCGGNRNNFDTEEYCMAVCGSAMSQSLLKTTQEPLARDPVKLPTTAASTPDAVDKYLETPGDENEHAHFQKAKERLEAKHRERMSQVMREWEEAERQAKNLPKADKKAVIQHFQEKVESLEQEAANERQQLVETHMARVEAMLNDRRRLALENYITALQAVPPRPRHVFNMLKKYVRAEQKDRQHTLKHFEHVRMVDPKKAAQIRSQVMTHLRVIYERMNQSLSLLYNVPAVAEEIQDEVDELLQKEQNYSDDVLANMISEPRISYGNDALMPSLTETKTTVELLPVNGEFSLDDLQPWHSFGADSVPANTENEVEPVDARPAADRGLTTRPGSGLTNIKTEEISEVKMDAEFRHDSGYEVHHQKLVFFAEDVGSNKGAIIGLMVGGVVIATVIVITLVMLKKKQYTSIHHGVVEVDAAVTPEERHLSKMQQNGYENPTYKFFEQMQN
In assay [2] the target is T2, Acetylcholinesterase (Homo sapiens, UniProt P22303). The assay is described as follows: Inhibition of AChE (unknown origin).
T2 sequence (P22303 whole entry): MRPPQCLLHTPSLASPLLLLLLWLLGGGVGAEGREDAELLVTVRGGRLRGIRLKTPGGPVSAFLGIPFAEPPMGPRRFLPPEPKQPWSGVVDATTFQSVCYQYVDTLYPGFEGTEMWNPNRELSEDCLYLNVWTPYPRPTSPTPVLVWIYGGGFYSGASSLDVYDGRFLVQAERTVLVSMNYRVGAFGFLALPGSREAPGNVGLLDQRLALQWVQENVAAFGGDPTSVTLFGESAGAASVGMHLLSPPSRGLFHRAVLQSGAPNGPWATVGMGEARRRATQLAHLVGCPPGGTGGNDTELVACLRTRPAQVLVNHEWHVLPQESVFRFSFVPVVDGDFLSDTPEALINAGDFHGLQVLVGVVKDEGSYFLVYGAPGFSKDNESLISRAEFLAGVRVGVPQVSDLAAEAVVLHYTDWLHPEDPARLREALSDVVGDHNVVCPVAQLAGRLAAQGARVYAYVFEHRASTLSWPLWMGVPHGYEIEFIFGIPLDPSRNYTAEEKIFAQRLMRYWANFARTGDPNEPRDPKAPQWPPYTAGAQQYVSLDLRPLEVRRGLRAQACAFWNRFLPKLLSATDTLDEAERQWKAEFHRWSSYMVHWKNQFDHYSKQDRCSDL
Assay [3] concerns the target T3, Cholinesterase (Homo sapiens, UniProt P06276). The assay is described as follows: Inhibition of BuChE (unknown origin).
The target in assay [4] is T1, Amyloid-beta precursor protein. The assay is described as follows: Inhibition of self-induced amyloid beta (unknown origin) aggregation.
The target is the same in assay [5]. In words: Inhibition of self-induced amyloid beta (1 to 42) (unknown origin) aggregation at 10 uM relative to control.
Assay [6] shares this target. The assay is described as follows: Inhibition of amyloid beta (unknown origin) aggregation.
The target in assay [7] is T3, Cholinesterase. The assay is described as follows: Inhibition of human serum BuChE preincubated for 20 mins followed by substrate addition by Ellman's method. It counts as cell-free.
For assay [8], the target named is T1, Amyloid-beta precursor protein. The assay is described as follows: Inhibition of self-induced amyloid beta (unknown origin) aggregation relative to control. The settings on record: concentration not given here.
The target in assay [9] is T2, Acetylcholinesterase. The assay is described as follows: Inhibition of human recombinant AChE preincubated for 20 mins followed by substrate addition by Ellman's method. Background: In Ellman's method for cholinesterases, released thiocholine reacts with DTNB.
For assay [10], the target named is T1, Amyloid-beta precursor protein. In words: Inhibition of self-induced amyloid beta (unknown origin) aggregation at 100 uM relative to control.
Assay [11] has as its target T2, Acetylcholinesterase. In words: Inhibition of AChE (unknown origin) at 100 uM relative to control.
Assay [12] addresses T4, Beta-secretase 1 (Homo sapiens, UniProt P56817). The assay is described as follows: Inhibition of human BACE-1 at 100 uM relative to control.
In assay [13] the target is T4, Beta-secretase 1. The assay is described as follows: Inhibition of human BACE-1 at 500 uM relative to control.
Assay [14] has as its target T1, Amyloid-beta precursor protein. In words: Inhibition of self-induced amyloid beta (unknown origin) aggregation at 20 uM relative to control.
For assay [15], the target named is T4, Beta-secretase 1. In words: Inhibition of human BACE-1.
Assay [16] deals with T5, Amine oxidase [flavin-containing] B (Homo sapiens, UniProt P27338).
T5 sequence (P27338 whole entry): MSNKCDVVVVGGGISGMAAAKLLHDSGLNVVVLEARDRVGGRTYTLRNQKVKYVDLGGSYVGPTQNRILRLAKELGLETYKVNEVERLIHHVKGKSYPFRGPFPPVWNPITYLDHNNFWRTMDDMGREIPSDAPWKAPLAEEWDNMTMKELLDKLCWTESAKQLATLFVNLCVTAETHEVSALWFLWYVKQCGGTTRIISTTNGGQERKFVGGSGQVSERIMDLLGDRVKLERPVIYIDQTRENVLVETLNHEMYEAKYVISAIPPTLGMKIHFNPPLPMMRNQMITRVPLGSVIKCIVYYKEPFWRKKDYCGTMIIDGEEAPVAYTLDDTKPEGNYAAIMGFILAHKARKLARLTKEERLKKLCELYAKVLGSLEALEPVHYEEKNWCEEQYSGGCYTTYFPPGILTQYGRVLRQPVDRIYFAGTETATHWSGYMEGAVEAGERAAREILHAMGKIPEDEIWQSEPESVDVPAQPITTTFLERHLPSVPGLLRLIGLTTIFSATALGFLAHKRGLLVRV
In words: Inhibition of human MAO-B.

For assay [17], the system named is SH-SY5Y. The assay is described as follows: Neuroprotective activity against amyloid beta treated human SH-SY5Y cells at 1 nM relative to control. It counts as functional.
Assay [18] addresses T2, Acetylcholinesterase. In words: Inhibition of AChE (unknown origin) assessed as inhibition constant.
The target in assay [19] is T5, Amine oxidase [flavin-containing] B. In words: Inhibition of MAO-B (unknown origin).
Assay [20] has as its system HepG2. In words: Cytotoxicity against human HepG2 cells assessed as reduction in cell viability at 10 uM relative to control. It counts as functional.
The target of assay [21] is T3, Cholinesterase. The assay is described as follows: Inhibition of BuChE (unknown origin) relative to control. The settings on record: concentration not given here.
Assay [22] has as its target Glycogen synthase kinase-3 beta (Homo sapiens) (UniProt P49841). In words: Non-competitive inhibition of GSK3-beta (unknown origin) assessed as inhibition of tau hyperphosphorylation at 100 ug/ml incubated for 1 hr in presence of ATP by ADP-Glo kinase assay relative to control. Particulars: dose 100.0 µg/ml. (ADP-Glo first removes unused ATP, then detects ADP through luciferase.)

In assay [23] the test system is SH-SY5Y. In words: Neuroprotective activity against human SH-SY5Y cells assessed as increase in cell viability at 25 uM relative to control. It counts as functional.
Assay [24] concerns the target T4, Beta-secretase 1. In words: Inhibition of BACE-1 (unknown origin) relative to control. The settings on record: concentration not given here.
Assay [25] has as its target T2, Acetylcholinesterase. The assay is described as follows: Inhibition of AChE (unknown origin) relative to control. The settings on record: concentration not given here.
The target in assay [26] is T1, Amyloid-beta precursor protein. The assay is described as follows: Inhibition of self-induced amyloid beta (unknown origin) aggregation at 3 uM relative to control.
In assay [27] the test system is HT-22. In words: Neuroprotective activity against glutamate-induced cell death in mouse HT-22 cells at 10 uM relative to control. It counts as functional.
The nature of assay [28]: Antioxidant activity of compound assessed as trolox equivalent preincubated for 15 mins followed by AAPH addition and measured for 90 mins by ORAC-FL assay. Particulars: time 105.0 min. It counts as functional.
Assay [29] has as its system Mus musculus. The assay is described as follows: Anti-alzheimer activity in APP/PS1 mouse model assessed as reduction in cerebral levels of insoluble amyloid beta (1 to 40) at 40 mg/kg, po administered via oral gavage once a day for 12 weeks relative to control. It counts as functional. Further details: scale not given: the % may be the effect or the level left.
Assay [30] has as its system Mus musculus. The assay is described as follows: Antialzheimer activity in Tg2576 mouse model assessed as decrease in soluble amyloid beta level in brain homogenate at 20 mg/kg, ip administered daily for 30 days relative to control. It counts as functional. Further details: scale not given: the % may be the effect or the level left. The settings on record: time 30 day.

Structures are written as SMILES.

T3 sequence (P06276 whole entry): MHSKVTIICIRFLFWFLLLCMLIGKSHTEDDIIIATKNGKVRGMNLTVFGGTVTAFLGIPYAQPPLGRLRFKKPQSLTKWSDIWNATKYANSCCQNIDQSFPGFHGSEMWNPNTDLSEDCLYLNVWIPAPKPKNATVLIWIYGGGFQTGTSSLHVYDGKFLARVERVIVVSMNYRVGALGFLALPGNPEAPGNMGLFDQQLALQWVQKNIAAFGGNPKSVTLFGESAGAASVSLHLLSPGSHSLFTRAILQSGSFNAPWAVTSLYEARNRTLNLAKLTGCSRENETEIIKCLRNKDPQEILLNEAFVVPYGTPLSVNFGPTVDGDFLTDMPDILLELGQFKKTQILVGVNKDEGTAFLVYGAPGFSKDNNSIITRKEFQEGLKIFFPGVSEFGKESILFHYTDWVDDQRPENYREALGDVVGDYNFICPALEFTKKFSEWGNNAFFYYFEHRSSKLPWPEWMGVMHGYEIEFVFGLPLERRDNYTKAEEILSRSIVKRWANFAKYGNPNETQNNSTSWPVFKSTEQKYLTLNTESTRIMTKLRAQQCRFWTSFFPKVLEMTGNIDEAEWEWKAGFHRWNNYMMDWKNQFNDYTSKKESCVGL
T4 sequence (P56817 whole entry): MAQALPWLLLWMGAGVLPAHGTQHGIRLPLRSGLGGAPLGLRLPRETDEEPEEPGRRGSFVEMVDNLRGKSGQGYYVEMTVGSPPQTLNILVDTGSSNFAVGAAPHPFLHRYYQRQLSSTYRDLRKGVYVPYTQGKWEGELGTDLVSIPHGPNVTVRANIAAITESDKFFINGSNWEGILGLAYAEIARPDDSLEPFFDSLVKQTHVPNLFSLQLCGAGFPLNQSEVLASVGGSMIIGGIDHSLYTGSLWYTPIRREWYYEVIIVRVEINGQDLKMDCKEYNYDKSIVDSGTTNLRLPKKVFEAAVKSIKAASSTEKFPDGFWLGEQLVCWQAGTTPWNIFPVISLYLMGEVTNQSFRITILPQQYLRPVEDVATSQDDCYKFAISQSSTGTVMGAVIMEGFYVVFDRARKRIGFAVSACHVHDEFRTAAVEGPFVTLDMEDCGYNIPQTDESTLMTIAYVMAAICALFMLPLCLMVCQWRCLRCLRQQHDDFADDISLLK
Glycogen synthase kinase-3 beta (Homo sapiens), sequence (P49841 whole entry, looked up): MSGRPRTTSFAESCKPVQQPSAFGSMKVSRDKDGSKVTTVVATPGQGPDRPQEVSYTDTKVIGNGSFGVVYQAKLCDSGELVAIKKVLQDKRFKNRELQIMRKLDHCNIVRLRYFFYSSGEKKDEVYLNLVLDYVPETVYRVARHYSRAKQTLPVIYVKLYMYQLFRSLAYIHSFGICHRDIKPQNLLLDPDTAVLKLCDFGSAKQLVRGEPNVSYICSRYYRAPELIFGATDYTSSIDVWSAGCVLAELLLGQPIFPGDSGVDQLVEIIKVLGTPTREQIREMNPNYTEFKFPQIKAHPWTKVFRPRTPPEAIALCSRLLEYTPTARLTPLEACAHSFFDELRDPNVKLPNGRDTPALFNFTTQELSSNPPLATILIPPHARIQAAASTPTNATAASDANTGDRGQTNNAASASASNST

The molecule `COc1cc(O)c2c(=O)c(O)c(-c3ccc(O)c(O)c3)oc2c1` [RHAMNETIN] registered an IC50 in assay [1] of 2300 nM.
Turning to `CN(C)Cc1c(O)c(O)c(O)c2c(=O)cc(-c3ccccc3)oc12`, the IC50 in [2] worked out at 82000 nM.
`Cc1ccc(NCC[C@@H]2CCCN3CCCC[C@H]23)c2c(=O)c3ccccc3sc12`: the IC50 came to 460 nM in [3], 5200 nM in assay [2] and 840 nM in assay [4].
On to `CCN(CC)CCOc1ccc2c(=O)cc(-c3ccc(OC)cc3)oc2c1`, for which the IC50 was found to be 49.1 nM in [3] and 27.1 nM in assay [2].
In turn, `O=c1c(O)c(-c2cc(O)c(O)c(O)c2)oc2cc(O)cc(O)c12` registered an inhibition in assay [5] of 65.2%.
Molecule `Oc1cc(O)c2c(c1)O[C@H](c1ccc(O)c(O)c1)[C@H](O)C2` [(-)-EPICATECHIN] displayed an IC50 in assay [6] of 5300 nM.
Take `CNC(=O)Oc1cccc(CN(C)CCCCCCCOc2cccc(-c3cc(=O)c4ccccc4o3)c2)c1`: the IC50 in [7] was found to be 63.7 nM; in assay [9], 0.52 nM. For the same molecule, in assay [8], the inhibition stood at 17.2%.
Consider `O=c1c(O)c(-c2ccc(O)c(O)c2)oc2cc(O)ccc12` [FISETIN], for which the IC50 in assay [1] amounted to 12500 nM.
With `COc1cc2c(cc1CC=C(C)C)C(=O)C[C@@H](c1ccc(O)cc1)O2`, the inhibition in [10] was 57%; in [11], 81%; in assay [12] it was 21%.
Regarding `Cc1ccc(NCC[C@@H]2CCCN3CCCC[C@H]23)c2c(=O)c3ccccc3oc12`, the values for the IC50 in assay [3], in assay [2] and in assay [4] were 370 nM, 140 nM and 13000 nM, respectively.
In the case of `C[C@@H]1O[C@@H](OC[C@H]2O[C@@H](Oc3cc(O)c4c(c3)O[C@H](c3ccc(O)cc3)CC4=O)[C@H](O)[C@@H](O)[C@@H]2O)[C@H](O)[C@H](O)[C@H]1O`, the inhibition worked out at 79.3% in assay [13] and 53% in [14].
The molecule `COc1cc2oc3cccc(O)c3c(=O)c2c(O)c1CN(C)C` yielded a concentration for half-maximal inhibition (IC50) in assay [2] of 100000 nM.
`COc1ccc(-c2cc(=O)c3ccc(OCCN4CCC(C)CC4)cc3o2)cc1`: the IC50 in assay [3] amounted to 24.7 nM; in assay [2] it was 6.33 nM.
With `CCC(=O)CNC(=O)Nc1nc2ccc(-c3oc4c(OC)c(O)c(O)c(OC)c4c(=O)c3O)cc2s1`, the IC50 in assay [15] is 2100 nM; in assay [3] it was 0.32 nM; in assay [2] it was 100 nM.
Take `COc1ccc(/C=C2\COc3cc(OCCN4CCCCC4)ccc3C2=O)cc1`: the IC50 in assay [16] is 25000 nM.
Take `COc1ccc(/C=C2\COc3cc(OCCCN4CCCCC4)ccc3C2=O)cc1`: the IC50 turned out to be 9210 nM in [3], 3440 nM in [16] and 3940 nM in assay [2].
As for `COc1ccc(-c2cc(=O)c3ccc(OCCN4CCN(CCO)CC4)cc3o2)cc1`, the IC50 in assay [3] amounted to 21.6 nM; in [2], 7.56 nM.
As for `CC(C)=CCc1cc2c(cc1O)O[C@@H](c1ccc(O)cc1)CC2=O`, the values for the inhibition in assay [10], in [11] and in assay [12] were 19%, 34% and 17%, respectively.
Regarding `CCN(CC)CCCCOc1cc(O)c2c(=O)c(-c3ccc(O)cc3)coc2c1`, the IC50 was above 100000 nM in [3] and 100 nM in [2]. The Activity in assay [17] was 75.7%.
`COc1cc(O)c2c(=O)c3cccc(O)c3oc2c1`: the inhibition constant Ki in [18] came to 53000 nM. The IC50 in assay [19] is 33000 nM.
In the case of `CN(C)CCNC(=O)COc1cc(O)c2c(=O)c(-c3ccc(O)cc3)coc2c1.Cl`, in [20], the Activity is 1.53%. For the same molecule, in [21], the inhibition was determined as 26%. The molecule further displayed a concentration for half-maximal inhibition (IC50) in [2] of 2750 nM.
For `COc1ccc(-c2cc(=O)c3ccc(OCCN4CCOCC4)cc3o2)cc1`, the IC50 is 54.3 nM in assay [3] and 11 nM in [2].
For `O=c1cc(-c2ccc(O)c(O)c2)oc2cc(O)c([C@@H]3O[C@H](CO)[C@@H](O)[C@H](O)[C@H]3O)c(O)c12`, in [22], the inhibition was found to be 48.4%.
In [1], `O=c1c(O)c(-c2ccc(O)cc2O)oc2cc(O)cc(O)c12` [MORIN] gave an IC50 of 7400 nM.
As for `COc1cc(-c2oc3cc(O)cc(O)c3c(=O)c2O)ccc1O` [ISORHAMNETIN], the Activity in [23] stood at 64%.
Consider `COc1c(O)cc2oc3cc(O)c(CC=C(C)C)c(O)c3c(=O)c2c1CCC(C)(C)O` [GARCINONE D], for which the inhibition turned out to be 62.7% in assay [24], 12.9% in assay [25], 15% in assay [21] and 34.9% in assay [26]. Moreover, the Activity in assay [27] amounted to 45.4%.
For the molecule `COc1ccc(-c2cc(=O)c3ccc(OCCN4CCCC4)cc3o2)cc1`, the IC50 in assay [3] turned out to be 69.5 nM; in [2], 105 nM.
For `COc1cc(-c2cc(=O)c3c(O)c([C@@H]4O[C@H](CO)[C@@H](O)[C@H](O)[C@H]4O)c(O)cc3o2)ccc1O`, the inhibition in assay [22] was determined as 41.5%.
On to `CCN(CC)C(=O)Oc1ccc(-c2cc(=O)c3c(O)c(O)c(O)cc3o2)cc1`, for which, in assay [28], the Activity is 10.3. Moreover, the IC50 stood at 22100 nM in assay [3] and 1200 nM in assay [2].
For `O=C(O[C@@H]1Cc2c(O)cc(O)cc2O[C@@H]1c1cc(O)c(O)c(O)c1)c1cc(O)c(O)c(O)c1` [EPIGALOCATECHIN GALLATE], 180 nM corresponded to half-maximal inhibition in assay [6] (IC50).
As for `O=c1cc(-c2ccc(O)cc2)oc2cc(O)cc(O)c12` [APIGENIN], the Activity in assay [29] worked out at 20%.
On to `COc1ccc(/C=C2\COc3cc(OCCCCCN4CCCCC4)ccc3C2=O)cc1`, for which the IC50 in assay [16] worked out at 650 nM.
For the molecule `O=C(O[C@H]1Cc2c(O)cc(O)cc2O[C@H]1c1ccc(O)c(O)c1)c1cc(O)c(O)c(O)c1`, the IC50 worked out at 2400 nM in assay [15] and 3000 nM in assay [6].
As to `O=c1c(O)c(-c2ccc(O)c(O)c2)oc2cc(O)cc(O)c12` [QUERCETIN], in assay [1], the IC50 was found to be 2400 nM.
`O=c1cc(-c2ccc(O)c(O)c2)oc2cc(O)cc(O)c12` [LUTEOLIN]: the Activity in [30] turned out to be 49%.
